ChEMBL document CHEMBL1201862, “PubChem BioAssay data set” (2004)
The source made the active and inactive calls.

Legend:
Cysteine protease ATG4B = target: T1, Cysteine protease ATG4B (Homo sapiens, UniProt Q9Y4P1); assay type: functional;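 further: Fluorescence-based dose-response confirmation assay measuring inhibition of ATG4B activity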
T1 sequence (Q9Y4P1 whole entry): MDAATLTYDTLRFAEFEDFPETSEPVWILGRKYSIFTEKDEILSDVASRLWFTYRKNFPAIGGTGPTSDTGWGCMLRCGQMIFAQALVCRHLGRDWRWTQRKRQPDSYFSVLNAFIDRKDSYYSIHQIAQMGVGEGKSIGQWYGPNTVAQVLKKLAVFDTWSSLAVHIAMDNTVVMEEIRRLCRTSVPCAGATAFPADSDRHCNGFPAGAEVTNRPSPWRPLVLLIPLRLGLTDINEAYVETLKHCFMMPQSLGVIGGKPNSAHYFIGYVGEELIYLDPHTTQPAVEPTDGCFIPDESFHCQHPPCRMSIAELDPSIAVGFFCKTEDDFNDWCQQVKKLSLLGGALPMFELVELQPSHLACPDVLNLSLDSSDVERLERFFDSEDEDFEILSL

Phospholipase A2 = Phospholipase A2 (Homo sapiens, UniProt P04054); assay type: functional;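 further: confirmatory dose-response counterscreen on phospholipase A2, testing hits that came from an ultra-high-throughput screen for ATG4B inhibitors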
HeLa = assay: HeLa cell cytotoxicity, dose response, cytotoxicity control for MITF activator project, CellTiter-Glo luminescence, cherry-pick samples (AID 540259); assay type: functional, cell-based; conditions: Homo sapiens
[1] = tested on: Streptococcus sp. 'group A'; assay: growth inhibition of control SK(-) GAS strain, dose response, counter-screen for streptokinase expression inhibitor project, luminescence, kanamycin, BacTiterGlo, confirmation (AID 1900); assay type: functional, organism-based
Streptokinase A = target: T2, Streptokinase A (Streptococcus pyogenes serotype M1, UniProt P10520); assay: S. pyogenes streptokinase expression inhibitors, potency, dose response, plasminogen activation absorbance, OD405 (AID 1914); assay type: functional, Streptococcus pyogenes M1 GAS;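 further: secreted streptokinase activity via plasminogen activation per viability signal from cell pellet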
T2 sequence (P10520 whole entry): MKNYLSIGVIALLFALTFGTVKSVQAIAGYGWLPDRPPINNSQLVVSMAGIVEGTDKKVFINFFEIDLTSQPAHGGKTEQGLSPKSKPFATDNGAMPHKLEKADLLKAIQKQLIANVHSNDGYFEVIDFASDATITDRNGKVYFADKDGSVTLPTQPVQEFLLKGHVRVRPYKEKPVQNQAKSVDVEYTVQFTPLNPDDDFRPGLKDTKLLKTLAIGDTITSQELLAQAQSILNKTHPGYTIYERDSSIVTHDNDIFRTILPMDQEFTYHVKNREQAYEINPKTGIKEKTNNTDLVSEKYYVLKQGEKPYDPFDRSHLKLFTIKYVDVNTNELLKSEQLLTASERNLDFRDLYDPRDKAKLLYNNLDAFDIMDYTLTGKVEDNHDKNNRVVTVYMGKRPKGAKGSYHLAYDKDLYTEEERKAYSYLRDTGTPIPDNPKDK

Streptococcus = assay: Group A Streptococcus viability loss, dose response, counter-screen for streptokinase expression inhibitor project, luminescence, BacTiterGlo (AID 1915); assay type: functional, organism-based;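 further: potency for reduction of bacterial viability or growth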
Caspase-3 = target: T3, Caspase-3 (Homo sapiens, UniProt P42574); assay type: functional;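 further: Dose-response selectivity test against caspase-3 for candidate inhibitors of sentrin-specific proteases (SENPs)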
T3 sequence (P42574 whole entry): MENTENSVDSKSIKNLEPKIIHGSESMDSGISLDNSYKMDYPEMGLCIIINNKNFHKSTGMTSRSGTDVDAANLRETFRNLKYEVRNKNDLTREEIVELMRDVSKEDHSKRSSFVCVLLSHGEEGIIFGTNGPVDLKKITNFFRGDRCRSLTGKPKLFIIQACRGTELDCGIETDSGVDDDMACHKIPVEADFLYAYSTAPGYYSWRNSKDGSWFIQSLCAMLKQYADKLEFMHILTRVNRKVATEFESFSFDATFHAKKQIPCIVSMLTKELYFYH

[2] = target: T4, Sentrin-specific protease 7 (Homo sapiens, UniProt Q9BQF6); assay type: functional;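 further: Luminescence-based dose-response confirmation of ultra-high-throughput screening hits, measuring inhibition of SENP7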
T4 sequence (Q9BQF6 whole entry): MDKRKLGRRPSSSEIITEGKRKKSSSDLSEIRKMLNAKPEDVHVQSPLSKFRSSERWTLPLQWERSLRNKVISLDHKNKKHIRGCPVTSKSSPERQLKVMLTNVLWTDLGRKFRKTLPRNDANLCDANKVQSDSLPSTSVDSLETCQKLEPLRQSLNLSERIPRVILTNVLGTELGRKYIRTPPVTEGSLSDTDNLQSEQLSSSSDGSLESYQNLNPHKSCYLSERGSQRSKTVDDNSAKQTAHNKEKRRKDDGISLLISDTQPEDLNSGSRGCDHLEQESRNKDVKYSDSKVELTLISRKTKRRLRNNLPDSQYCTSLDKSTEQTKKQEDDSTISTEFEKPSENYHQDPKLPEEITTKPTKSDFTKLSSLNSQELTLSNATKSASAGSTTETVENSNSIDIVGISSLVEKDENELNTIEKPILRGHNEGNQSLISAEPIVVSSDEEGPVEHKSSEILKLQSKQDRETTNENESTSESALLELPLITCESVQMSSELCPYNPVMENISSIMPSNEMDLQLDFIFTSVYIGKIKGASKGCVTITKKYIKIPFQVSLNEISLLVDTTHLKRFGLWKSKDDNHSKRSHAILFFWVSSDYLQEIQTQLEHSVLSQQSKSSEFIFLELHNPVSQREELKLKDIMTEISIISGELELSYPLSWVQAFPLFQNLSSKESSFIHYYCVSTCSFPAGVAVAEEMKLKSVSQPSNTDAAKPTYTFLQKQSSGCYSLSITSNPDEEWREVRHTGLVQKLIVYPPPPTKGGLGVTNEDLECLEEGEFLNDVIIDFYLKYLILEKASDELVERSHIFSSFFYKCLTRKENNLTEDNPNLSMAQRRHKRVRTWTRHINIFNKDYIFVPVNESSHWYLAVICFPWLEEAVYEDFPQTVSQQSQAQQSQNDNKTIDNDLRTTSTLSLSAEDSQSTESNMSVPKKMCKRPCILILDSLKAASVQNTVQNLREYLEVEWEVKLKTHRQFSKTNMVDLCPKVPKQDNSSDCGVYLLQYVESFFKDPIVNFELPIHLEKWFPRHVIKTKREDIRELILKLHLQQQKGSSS

[3] = target: T5, Sentrin-specific protease 6 (Homo sapiens, UniProt Q9GZR1); assay type: functional;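 further: Luminescence-based dose-response confirmatory assay of SENP6 inhibition, following up an ultra-high-throughput screen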
T5 sequence (Q9GZR1 whole entry): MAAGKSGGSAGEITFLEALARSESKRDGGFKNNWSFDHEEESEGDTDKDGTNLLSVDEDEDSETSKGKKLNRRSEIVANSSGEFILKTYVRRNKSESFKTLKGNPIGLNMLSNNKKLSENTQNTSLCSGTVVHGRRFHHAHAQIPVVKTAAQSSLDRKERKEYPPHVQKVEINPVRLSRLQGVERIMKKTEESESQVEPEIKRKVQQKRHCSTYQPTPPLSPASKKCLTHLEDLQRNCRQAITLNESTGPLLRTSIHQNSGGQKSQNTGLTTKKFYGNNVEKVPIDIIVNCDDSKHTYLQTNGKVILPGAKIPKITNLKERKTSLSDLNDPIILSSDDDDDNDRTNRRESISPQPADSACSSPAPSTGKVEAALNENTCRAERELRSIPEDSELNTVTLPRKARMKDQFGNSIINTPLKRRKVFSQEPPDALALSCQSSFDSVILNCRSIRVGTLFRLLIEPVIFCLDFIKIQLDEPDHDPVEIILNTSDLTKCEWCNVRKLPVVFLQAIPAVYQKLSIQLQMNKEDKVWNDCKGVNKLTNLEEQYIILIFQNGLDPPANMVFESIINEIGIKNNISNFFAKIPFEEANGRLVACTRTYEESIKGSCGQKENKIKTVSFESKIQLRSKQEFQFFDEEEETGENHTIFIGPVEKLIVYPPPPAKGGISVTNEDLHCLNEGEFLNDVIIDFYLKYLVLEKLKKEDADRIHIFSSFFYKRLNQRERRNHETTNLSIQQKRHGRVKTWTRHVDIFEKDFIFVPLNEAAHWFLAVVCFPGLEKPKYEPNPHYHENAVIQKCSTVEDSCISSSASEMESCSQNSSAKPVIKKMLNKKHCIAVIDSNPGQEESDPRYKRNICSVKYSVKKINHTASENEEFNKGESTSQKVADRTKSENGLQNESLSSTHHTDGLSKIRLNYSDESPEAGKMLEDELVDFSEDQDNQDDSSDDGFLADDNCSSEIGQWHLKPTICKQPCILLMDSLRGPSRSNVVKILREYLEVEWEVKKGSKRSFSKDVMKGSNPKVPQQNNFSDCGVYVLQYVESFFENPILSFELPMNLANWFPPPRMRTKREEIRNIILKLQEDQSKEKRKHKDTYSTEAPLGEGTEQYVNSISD

[4] = target: T6, Sentrin-specific protease 8 (Homo sapiens, UniProt Q96LD8); assay type: functional;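 further: luminescence read-out of SENP8 inhibition, dose-response confirmation following an ultra-high-throughput screen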
T6 sequence (Q96LD8 whole entry): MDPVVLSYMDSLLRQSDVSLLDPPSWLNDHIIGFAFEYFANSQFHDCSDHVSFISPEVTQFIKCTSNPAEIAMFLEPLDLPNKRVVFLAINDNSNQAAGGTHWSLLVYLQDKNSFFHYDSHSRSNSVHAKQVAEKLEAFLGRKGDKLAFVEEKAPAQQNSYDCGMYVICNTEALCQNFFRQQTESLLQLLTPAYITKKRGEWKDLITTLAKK

[5] = THP-1 cell cytotoxicity, dose response, cytotoxicity control for non-replicating M. tuberculosis project (AID 489025); assay type: functional
[6] = Vero E6 cell cytotoxicity, dose response, cytotoxicity control for non-replicating M. tuberculosis project, secondary assay (AID 492998); assay type: functional, VeroE6; conditions: Vero C1008
cells = assay type: functional
Cytochrome P450 3A4 = Cytochrome P450 3A4 (Homo sapiens, UniProt P08684);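 further: CYP3A4 tested as one member of a cytochrome P450 panel screen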
Cytochrome P450 2C9 = Cytochrome P450 2C9 (Homo sapiens, UniProt P11712)
Cytochrome P450 2C19 = Cytochrome P450 2C19 (Homo sapiens, UniProt P33261); assay: Cytochrome panel assay with activity outcomes. Panel member name: p450-cyp2c19 Compounds with AC50 equal or less than 10 uM are considered active; assay type: functional; conditions: read-out: AC50
H9c2 = assay: cells; assay type: functional, cell-based; conditions: Rattus norvegicus, H9c2, Myocardium
H4 = assay: Luminescence Cell-Based Dose Response HTS to Identify Activators of 5'UTR Stem-Loop Driven Prion Protein mRNA Translation in H4 Neuroglioblastoma Cells. [Related pubchem assays: 1829 (Project Summary), 1814 (Primary HTS)]; assay type: functional; conditions: Homo sapiens
[7] = microbe, parasite or virus in culture; assay type: functional; conditions: Mycobacterium tuberculosis
[8] = HEp-2 cell cytotoxicity, dose response, cytotoxicity control for RSV inhibitor project, HTS (AID 2410); assay type: functional; conditions: human respiratory syncytial virus

Cytochrome P450 3A4, sequence (P08684 whole entry): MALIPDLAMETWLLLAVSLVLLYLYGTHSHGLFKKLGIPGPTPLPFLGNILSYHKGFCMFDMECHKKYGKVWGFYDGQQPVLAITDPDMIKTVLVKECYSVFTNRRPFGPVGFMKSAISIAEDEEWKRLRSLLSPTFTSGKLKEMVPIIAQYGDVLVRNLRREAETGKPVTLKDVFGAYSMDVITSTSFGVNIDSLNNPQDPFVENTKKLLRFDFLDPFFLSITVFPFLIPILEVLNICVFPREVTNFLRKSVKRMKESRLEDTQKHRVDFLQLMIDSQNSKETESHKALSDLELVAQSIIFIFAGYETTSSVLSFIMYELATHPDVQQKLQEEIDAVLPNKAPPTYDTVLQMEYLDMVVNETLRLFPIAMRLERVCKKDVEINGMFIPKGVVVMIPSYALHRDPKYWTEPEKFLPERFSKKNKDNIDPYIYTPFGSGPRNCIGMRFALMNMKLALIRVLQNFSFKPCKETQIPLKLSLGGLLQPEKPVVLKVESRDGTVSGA
Phospholipase A2, sequence (P04054 whole entry): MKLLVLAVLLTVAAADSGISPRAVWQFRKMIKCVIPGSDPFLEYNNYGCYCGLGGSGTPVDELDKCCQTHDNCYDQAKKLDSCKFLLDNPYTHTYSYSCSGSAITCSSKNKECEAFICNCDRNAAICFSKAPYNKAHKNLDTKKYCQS
Cytochrome P450 2C9, sequence (P11712 whole entry): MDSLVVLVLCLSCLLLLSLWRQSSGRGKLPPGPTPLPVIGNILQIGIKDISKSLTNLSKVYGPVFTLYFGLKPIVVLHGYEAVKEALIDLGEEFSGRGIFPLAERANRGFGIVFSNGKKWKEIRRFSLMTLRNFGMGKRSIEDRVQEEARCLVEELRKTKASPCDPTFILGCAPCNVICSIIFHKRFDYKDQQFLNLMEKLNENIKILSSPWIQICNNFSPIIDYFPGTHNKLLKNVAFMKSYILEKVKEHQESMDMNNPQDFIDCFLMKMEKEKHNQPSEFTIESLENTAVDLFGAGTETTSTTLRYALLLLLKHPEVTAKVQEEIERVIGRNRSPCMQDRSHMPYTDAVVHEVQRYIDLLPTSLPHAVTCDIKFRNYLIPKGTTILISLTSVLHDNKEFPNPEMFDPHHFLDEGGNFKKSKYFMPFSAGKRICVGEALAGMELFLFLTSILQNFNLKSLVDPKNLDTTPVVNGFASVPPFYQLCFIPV
Cytochrome P450 2C19, sequence (P33261 whole entry): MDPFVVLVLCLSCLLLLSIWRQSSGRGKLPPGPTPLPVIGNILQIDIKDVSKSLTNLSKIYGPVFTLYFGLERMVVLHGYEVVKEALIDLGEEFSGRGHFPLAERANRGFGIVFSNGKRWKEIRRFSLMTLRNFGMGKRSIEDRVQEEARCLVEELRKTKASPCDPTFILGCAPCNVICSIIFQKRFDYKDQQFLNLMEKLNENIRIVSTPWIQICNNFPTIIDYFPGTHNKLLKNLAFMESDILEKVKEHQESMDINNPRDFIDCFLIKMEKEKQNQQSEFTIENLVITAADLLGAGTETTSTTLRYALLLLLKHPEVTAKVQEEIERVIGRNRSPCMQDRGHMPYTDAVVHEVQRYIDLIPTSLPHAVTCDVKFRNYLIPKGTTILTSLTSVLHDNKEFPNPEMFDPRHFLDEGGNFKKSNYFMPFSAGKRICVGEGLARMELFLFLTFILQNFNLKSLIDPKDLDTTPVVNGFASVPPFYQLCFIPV

## C=CCn1c(-c2oc3nc(-c4ccccc4)cc(-c4ccccc4)c3c2N)n[nH]c1=S
Cysteine protease ATG4B
  IC50: 21.5 µM (inactive)
Phospholipase A2
  IC50: 20.7 µM (inactive)

## C=CCn1cccc(C(=O)Nc2ccc(Cl)cc2)c1=O
HeLa
  AC50: 99.8 µM (active)

## O=C(Nc1nc2c(cc3c4c(cccc42)CC3)s1)c1ccccc1Cl
Cysteine protease ATG4B
  IC50: > 80 µM (inactive)
Phospholipase A2
  IC50: 15.7 µM (active)

## OC(c1ccc(OCc2ccccc2)cc1)c1nnc(-c2ccccc2)o1 (stereo not given)
[1]
  EC50: 19 µM (active)
Streptokinase A
  EC50: 77.8 µM (active)
Streptococcus
  EC50: > 150 µM (not active)
Caspase-3
  IC50: 69.2 µM (active)
[2]
  IC50: 12.8 µM (active)
[3]
  IC50: 33.2 µM (active)
[4]
  IC50: 75.6 µM (active)

## CC(C)c1nnc(NC(=O)c2c(O)c3cccc4c3n(c2=O)CCC4)s1
[5]
  CC50: 8.21 µM (active)
[6]
  CC50: 17.1 µM (active)
cells
  IC50: 7.34 µM (active)

## CCC(C)NC(=O)C1CCN(C(=O)c2ccccc2)CC1 (stereo not given)
Cytochrome P450 3A4
  AC50: inconclusive

## O=C(COc1ccc(Cl)cc1)Nc1ccc(N2CCN(C(=O)c3ccco3)CC2)cc1
Cytochrome P450 2C9
  AC50: 1.12 µM (inconclusive)
Cytochrome P450 3A4
  AC50: inconclusive

## C[C@]12CC[C@H]3c4ccc(O)cc4CC[C@@H]3[C@H]1CC[C@@H]2OC(=O)CCC1CCCC1
Cytochrome P450 2C19
  AC50: 6.31 µM (inconclusive)
Cytochrome P450 3A4
  AC50: inconclusive

## CC(C)Nc1cc(C(C)(C)C)nc2c(-c3ccccc3)cnn12
[1]
  EC50: 6.01 µM (active)
Streptokinase A
  EC50: 13.6 µM (active)
Streptococcus
  EC50: 15.9 µM (active)
HeLa
  AC50: 58.2 µM (active)

## O=C1N=C(N2CCC(Cc3ccccc3)CC2)S/C1=C/c1c[nH]nc1-c1ccccc1
Cytochrome P450 3A4
  AC50: inconclusive

## CN(C)S(=O)(=O)c1ccc2[nH]cc(/C=C/c3nc4ccccc4c(=O)n3-c3ccccc3)c2c1
Cysteine protease ATG4B
  IC50: 18.6 µM (active)
Phospholipase A2
  IC50: 46.6 µM (inactive)
H9c2
  IC50: > 79 µM (inactive)

## COc1ccc2oc3ccc(OC)cc3c(=O)c2c1
Caspase-3
  IC50: 11 µM (active)
[2]
  IC50: 9.8 µM (active)
[3]
  IC50: 15.1 µM (active)
[4]
  IC50: 69.1 µM (active)

## O=C(NCCC1=CCCCC1)NC12CC3CC(CC(C3)C1)C2
H4
  EC50: 6.24 µM (active)
[7]
  CC50: > 40 µM (active)
HeLa
  AC50: 215 µM (active)

## Cc1nc(N/N=C\c2ccc3c(c2)OCO3)sc1C
[1]
  EC50: 23.6 µM (active)
Streptokinase A
  EC50: > 150 µM (not active)
Streptococcus
  EC50: 31.7 µM (active)
Caspase-3
  IC50: 33.2 µM (active)
[2]
  IC50: 12 µM (active)
[3]
  IC50: 39.1 µM (active)
[4]
  IC50: 72.7 µM (active)

## Cc1ccc(S(=O)(=O)Nc2ccccc2/C=N/c2nc3ccccc3n2C(C)C)cc1
[8]
  CC50: 14.9 µM (active)
Cysteine protease ATG4B
  IC50: 15.1 µM (active)
Phospholipase A2
  IC50: 13.2 µM (active)
